Data as given in patent US12558342B2, “2-[2-({12,12-dimethyl-4-oxo-6-phenyl-3,11-dioxatricyclo[8.4.0.0,2,7]tetradeca-1,5,7,9-tetraen-8-yl}oxy)acetamido]benzamide and derivatives as inhibitor of clock:bmal1 interaction for the treatment of circadian rhythm diseases and disorders” (KOC UNIVERSITESI, priority 2019, dated 2026).

Legend:
CLOCK-F80A-K220A = biological target: T1, CLOCK-F80A-K220A (Homo sapiens, UniProt O15516, F80A/K220A); test: Pull-down assay with biotinylated CLK8, HEK 293T cells overexpressing CLOCK-F80A-K220A and BMAL1; assay type: binding
T1 construct: expressed in transfected cells; host or cells: HEK 293T
T1 sequence (O15516 1-846 F80A/K220A): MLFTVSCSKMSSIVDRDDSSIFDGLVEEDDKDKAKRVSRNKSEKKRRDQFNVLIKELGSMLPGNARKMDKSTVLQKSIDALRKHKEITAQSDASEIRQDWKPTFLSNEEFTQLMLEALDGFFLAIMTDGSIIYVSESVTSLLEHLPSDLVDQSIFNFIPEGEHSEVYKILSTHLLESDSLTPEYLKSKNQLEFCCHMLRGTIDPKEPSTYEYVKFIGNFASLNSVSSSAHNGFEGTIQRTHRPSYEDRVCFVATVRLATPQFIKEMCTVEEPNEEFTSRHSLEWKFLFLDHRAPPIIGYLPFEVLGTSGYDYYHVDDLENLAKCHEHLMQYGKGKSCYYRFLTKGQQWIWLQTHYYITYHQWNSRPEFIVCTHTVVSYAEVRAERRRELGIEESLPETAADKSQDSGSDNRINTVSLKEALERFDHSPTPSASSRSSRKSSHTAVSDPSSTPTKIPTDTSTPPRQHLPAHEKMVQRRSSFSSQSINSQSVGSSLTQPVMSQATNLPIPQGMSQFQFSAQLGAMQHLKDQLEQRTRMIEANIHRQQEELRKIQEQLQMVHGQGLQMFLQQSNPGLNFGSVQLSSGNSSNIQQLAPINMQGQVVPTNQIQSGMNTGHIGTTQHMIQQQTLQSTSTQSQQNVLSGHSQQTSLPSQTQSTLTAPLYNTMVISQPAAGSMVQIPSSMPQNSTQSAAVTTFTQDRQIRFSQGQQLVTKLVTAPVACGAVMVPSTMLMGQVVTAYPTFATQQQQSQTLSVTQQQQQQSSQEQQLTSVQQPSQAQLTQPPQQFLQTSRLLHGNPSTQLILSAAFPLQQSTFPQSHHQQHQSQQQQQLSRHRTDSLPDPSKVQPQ
Method: HEK293T cells were transiently transfected with tag-free hsClock and mBmal1. After 48 hours of transfection, cells were harvested and whole cell lysate was prepared with ice-cold lysis buffer (50 mM Tris-HCl pH 7.4, 2 mM EDTA, 1 mM MgCl2, 0.2% NP-40, 1 mM sodium orthovanadate, 1 mM sodium fluoride and protease inhibitor cocktail) followed by centrifugation at 7000×g at 4° C. for 10 minutes. Lysate was diluted with ice-cold 2× binding buffer (100 mM Tris-HCl pH 7.4, 300 mM NaCl, 0.2% NP-40, 2 mM sodium orthovanadate, 2 mM sodium fluoride, and protease inhibitor cocktail) 27. The lysate was divided into three fractions to be treated with either DMSO, or 20 μM of bitoinylated-CLK8 (bait) with or without 200 μM CLK8 (competitor). The lysate-compound samples were incubated and mixed continuously at 4° C. for 1 hour. After equilibrating NeutroAvidin Agarose resin (Thermo Scientific) with lysis buffer, the lysate-compound mixture and NeutroAvidin Agarose resin were incubated and mixed continuously at 4° C. overnight. The beads were washed four times with 1× binding buffer. To elute the bound proteins Laemmli buffer was added and samples were heated at 95° C. for 7 minutes. The pull-down precipitates were subjected to SDS-PAGE and transferred to a PVDF membrane (Millipore). […]

[1] = biological target: T2, CLOCK-F80A-K220A and BMAL1 interaction (Homo sapiens, UniProt O15516, F80A/K220A); test: Co-immunoprecipitation of FLAG-CLOCK-F80A-K220A and BMAL1; assay type: biochemical; details: 40 μM
T2 construct: expressed in transfected cells; host or cells: HEK 293T
T2 sequence (O15516 1-846 F80A/K220A): T1 sequence (O15516 1-846 F80A/K220A)
Method: HEK 293T cells co-expressing wild type or F80A-K220A mutant FLAG-tagged Clock together with tag-free Bmal1 were lysed with ice-cold lysis buffer (50 mM Tris-HCl PH 7.7, 150 mM NaCl, 0.1% Triton X-100, 1 mM PMSF and protease inhibitor cocktail) and centrifuged at 15000×g at 4° C. for 20 minutes. DMSO and different concentrations of CLK8 were added to the whole cell lysate. The mixtures were incubated with anti-FLAG M2 affinity gel (Sigma-Aldrich) at 4° C. overnight with continuous mixing. After three wash steps, bound proteins were eluted with Laemmli buffer heated at 95° C. for 7 minutes. CLOCK and BMAL1 were detected by monoclonal anti-FLAG M2 antibody (Sigma-Aldrich) and anti-BMAL1 (Santa Cruz Biotechnology) respectively. The amount of co-precipitated BMAL1 was normalized with the amount of precipitated CLOCK.
HEK 293T cells co-expressing wild type or F80A-K220A mutant FLAG-tagged Clock together with tag-free Bmal1 were lysed with ice-cold lysis buffer (50 mM Tris-HCl pH 7.7, 150 mM NaCl, 0.1% Triton X-100, 1 mM PMSF and protease inhibitor cocktail) and centrifuged at 15000×g at 4° C. for 20 minutes. DMSO and different concentrations of CLK8 were added to the whole cell lysate. […] CLOCK and BMAL1 were detected by monoclonal anti-FLAG M2 antibody (Sigma-Aldrich) and anti-BMAL1 (Santa Cruz Biotechnology) respectively. […]

CC1(C)CCc2c(cc(OCC(=O)Nc3ccccc3C(N)=O)c3c(-c4ccccc4)cc(=O)oc23)O1 [CLK8, 2-[2-({12,12-dimethyl-4-oxo-6-phenyl-3,11-dioxatricyclo [8.4.0.0,2,7]tetradeca-1,5,7,9-tetraen-8-yl}oxy)acetamido] benzamide]
precipitated mutant CLOCK in the presence of the competitor (CLOCK-F80A-K220A): did not disappear
interaction between CLOCK-F80A-K220A and BMAL1 [1]: not affected
